This note sets out measurements from US10493077B2, “Fused imidazo-piperidine JAK inhibitor compound” (THERAVANCE BIOPHARMA R&D IP, LLC, priority 2017, dated 2019).

For one data set, the target named is T1, CDK2 (Homo sapiens, UniProt P24941).
T1 construct: made in house; host or cells: T7 phage in E. coli (BL21-derived) or HEK-293
Briefly: Kinome screen, CDK2. Type of data set: binding. As to conditions: screened at 1 μM. On the procedure: (§1) Kinase-tagged T7 phage strains were grown in parallel in 24-well blocks in an E. coli host derived from the BL21 strain. E. coli were grown to log-phase and infected with T7 phage from a frozen stock (multiplicity of infection=0.4) and incubated with shaking at 32° C. until lysis (90-150 minutes). The lysates were centrifuged (6,000×g) and filtered (0.2 μm) to remove cell debris. The remaining kinases were produced in HEK-293 cells and subsequently tagged with DNA for qPCR detection.
(§2) Streptavidin-coated magnetic beads were treated with biotinylated small molecule ligands for 30 minutes at room temperature to generate affinity resins for kinase assays. The liganded beads were blocked with excess biotin and washed with blocking buffer (SeaBlock (Pierce), 1% BSA, 0.05% Tween 20, 1 mM DTT) to remove unbound ligand and to reduce non-specific phage binding. […] Test compounds were prepared as 40× stocks in 100% DMSO and directly diluted into the assay. All reactions were performed in polypropylene 384-well plates in a final volume of 0.04 ml. […] The beads were then re-suspended in elution buffer (1×PBS, 0.05% Tween 20, 0.5 μM non-biotinylated affinity ligand) and incubated at room temperature with shaking for 30 minutes. The kinase concentration in the eluates was measured by qPCR.

The next data set has as its target T2, SLK (Homo sapiens, UniProt Q9H2G2).
T2 construct: made in house; host or cells: T7 phage in E. coli (BL21-derived) or HEK-293
Briefly: Kinome screen, SLK. Type of data set: binding. As to conditions: screened at 1 μM. On the procedure:
as §1, §2

Another data set has as its target T3, VEGFR2 (Homo sapiens, UniProt P35968).
T3 construct: made in house; host or cells: T7 phage in E. coli (BL21-derived) or HEK-293
Briefly: Kinome screen, VEGFR2. It is filed as binding. To be noted: screened at 1 μM. On the procedure: as §1, §2

In another data set the target is T4, GSK3B (Homo sapiens, UniProt P49841).
T4 construct: made in house; host or cells: T7 phage in E. coli (BL21-derived) or HEK-293
T4 sequence (P49841 whole entry): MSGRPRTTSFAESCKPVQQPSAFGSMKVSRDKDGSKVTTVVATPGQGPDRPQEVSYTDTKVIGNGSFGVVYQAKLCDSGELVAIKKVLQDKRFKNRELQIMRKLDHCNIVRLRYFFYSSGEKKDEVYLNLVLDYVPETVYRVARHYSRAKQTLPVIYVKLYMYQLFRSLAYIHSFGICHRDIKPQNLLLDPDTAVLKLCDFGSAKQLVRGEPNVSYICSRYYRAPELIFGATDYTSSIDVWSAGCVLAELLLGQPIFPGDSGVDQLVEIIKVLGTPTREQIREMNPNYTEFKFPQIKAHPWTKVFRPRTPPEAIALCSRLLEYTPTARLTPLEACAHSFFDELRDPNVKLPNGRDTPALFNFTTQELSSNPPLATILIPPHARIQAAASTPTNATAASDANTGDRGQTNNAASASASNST
Briefly: Kinome screen, GSK3B. It is filed as binding. To be noted: screened at 1 μM. On the procedure: as §1, §2

The nature of data set [1]: Ocular pharmacokinetics in rabbit eyes. To be noted: for half-life: rabbit, vitreous, solution formulation in 2% 2-hydroxypropyl-β-cyclodextrin, intravitreal 50 μg/eye. Type of data set: in vivo. On the procedure: The objective of this assay was to determine the pharmacokinetics of a test compound in rabbit ocular tissues.
1-(2-(6-(2-ethyl-5-fluoro-4-hydroxyphenyl)-4-fluoro-1H-indazol-3-yl)-1,4,6,7-tetrahydro-5H-imidazo[4,5-c]pyridin-5-yl)-2-morpholinoethan-1-one (1), prepared in Example 2, was dissolved in 2% 2-hydroxypropyl-β-cyclodextrin to attain a target concentration of 1 mg/mL. Bilateral intravitreal injection (50 μL/eye) of the solution of test compound was administered to New Zealand white rabbits (50 μg/eye). The test compound concentration was measured in ocular tissues: vitreous, aqueous, retina/choroid and iris-ciliary body at pre-determined time points post injection (30 min, 4 h, 1 d, 3 d, 7 d, 14 d). Two rabbits (four eyes) were dosed for each time point.
A suspension formulation was prepared by combining compound 1 of Example 2 (Form 1), with 0.5% hydroxypropyl methylcellulose (HPMC E5)+0.02% Tween 80 in normal saline to attain a target concentration of 5 mg/mL, 20 mg/mL and 80 mg/mL for the 0.25 mg/eye, 1 mg/eye and 4 mg/eye doses respectively. Bilateral intravitreal injection (50 μL/eye) of the suspension of test compound was administered to New Zealand white rabbits. The test compound concentration was measured in ocular tissues as in the solution formulation assay at 30 min, 4 h, 24 h, 72 h, 7 d, 14 d, 28 d, 56 d and 84 d post injection. For the 4 mg/eye dose group, an additional time point at 168 d post injection was also collected. […] The clearance rate is consistent with the solubility of compound 1 in the vehicle and the ocular pharmacokinetic behavior in the solution formulation. […] Therefore, it is plausible that drug exposure is longer than that observed in this study. The drug concentration in plasma was measured and found to be at least 3 orders of magnitude lower than the concentration in vitreous tissue at all three concentrations.
A suspension formulation was prepared by combining compound 1 of Example 5 (Form 2), with 0.5% hydroxypropyl methylcellulose (HPMC E5)+0.02% Tween 80 in normal saline to attain a target concentration of […], 1 mg/mL, 2 mg/mL and 20 mg/mL for the 0.02 mg/eye, 0.05 mg/eye, 0.1 mg/eye and 1 mg/eye doses respectively. Bilateral intravitreal injection (50 μL/eye) of the suspension of test compound was administered to Dutch Belted rabbits. The test compound concentration was measured in vitreous humor, aqueous humor, iris-ciliary body, retina, retinal pigment epithelial/choroidal cells and plasma at 30 min, 7 d, 14 d, 28 d, 42 d and 56 d post injection. […] Therefore, it is plausible that drug exposure is longer than that observed in this study. The drug concentration in plasma was measured and found to be at least 3 orders of magnitude lower than the concentration in vitreous tissue at all three concentrations. The 3 orders of magnitude correspond to a logarithmic scale (ie 1000 on a non-logarithmic scale).

In a further data set the test system is IL-6 induced pSTAT3. Briefly: Pharmacodynamic assay: inhibition of IL6-induced pSTAT3 in rats. It is filed as in vivo, rat. As to conditions: 50 μg intravitreal, suspension formulation, 3 day pre-treatment prior to IL-6 challenge, female Lewis rats. As for the experimental part: The ability of a single intravitreal administration of test compound to inhibit IL-6 induced pSTAT3 was measured in rat retina/choroid homogenates.
A suspension formulation was prepared by combining compound 1 of Example 2, with 0.5% hydroxypropyl methylcellulose (HPMC E5 LV), 0.02% Tween 80, and 9 mg/mL sodium chloride in purified water to attain a target concentration of 10 mg/mL.
Female Lewis rats were intravitreally (IVT) dosed (5 μL per eye) with the suspension formulation. Three days later, IL-6 (Peprotech; 0.1 mg/mL; 5 μL per eye) or vehicle was intravitreally administered to induce pSTAT3. Ocular tissues were dissected one hour after the second IVT injection with IL-6. The retina/choroid tissues were homogenized and pSTAT3 levels were measured using an ELISA (Cell Signaling Technology). The percent inhibition of IL-6-induced pSTAT3 was calculated in comparison to the vehicle/vehicle and vehicle/IL-6 groups. Inhibition of greater than 100% reflects a reduction of pSTAT3 levels to below those observed in the vehicle/vehicle group.

Molecules are shown by their SMILES. Where two headings read alike, the source gives them in different places.

The inhibition is the change of the read-out against control, counted positive when it falls.

T2 sequence (Q9H2G2 whole entry): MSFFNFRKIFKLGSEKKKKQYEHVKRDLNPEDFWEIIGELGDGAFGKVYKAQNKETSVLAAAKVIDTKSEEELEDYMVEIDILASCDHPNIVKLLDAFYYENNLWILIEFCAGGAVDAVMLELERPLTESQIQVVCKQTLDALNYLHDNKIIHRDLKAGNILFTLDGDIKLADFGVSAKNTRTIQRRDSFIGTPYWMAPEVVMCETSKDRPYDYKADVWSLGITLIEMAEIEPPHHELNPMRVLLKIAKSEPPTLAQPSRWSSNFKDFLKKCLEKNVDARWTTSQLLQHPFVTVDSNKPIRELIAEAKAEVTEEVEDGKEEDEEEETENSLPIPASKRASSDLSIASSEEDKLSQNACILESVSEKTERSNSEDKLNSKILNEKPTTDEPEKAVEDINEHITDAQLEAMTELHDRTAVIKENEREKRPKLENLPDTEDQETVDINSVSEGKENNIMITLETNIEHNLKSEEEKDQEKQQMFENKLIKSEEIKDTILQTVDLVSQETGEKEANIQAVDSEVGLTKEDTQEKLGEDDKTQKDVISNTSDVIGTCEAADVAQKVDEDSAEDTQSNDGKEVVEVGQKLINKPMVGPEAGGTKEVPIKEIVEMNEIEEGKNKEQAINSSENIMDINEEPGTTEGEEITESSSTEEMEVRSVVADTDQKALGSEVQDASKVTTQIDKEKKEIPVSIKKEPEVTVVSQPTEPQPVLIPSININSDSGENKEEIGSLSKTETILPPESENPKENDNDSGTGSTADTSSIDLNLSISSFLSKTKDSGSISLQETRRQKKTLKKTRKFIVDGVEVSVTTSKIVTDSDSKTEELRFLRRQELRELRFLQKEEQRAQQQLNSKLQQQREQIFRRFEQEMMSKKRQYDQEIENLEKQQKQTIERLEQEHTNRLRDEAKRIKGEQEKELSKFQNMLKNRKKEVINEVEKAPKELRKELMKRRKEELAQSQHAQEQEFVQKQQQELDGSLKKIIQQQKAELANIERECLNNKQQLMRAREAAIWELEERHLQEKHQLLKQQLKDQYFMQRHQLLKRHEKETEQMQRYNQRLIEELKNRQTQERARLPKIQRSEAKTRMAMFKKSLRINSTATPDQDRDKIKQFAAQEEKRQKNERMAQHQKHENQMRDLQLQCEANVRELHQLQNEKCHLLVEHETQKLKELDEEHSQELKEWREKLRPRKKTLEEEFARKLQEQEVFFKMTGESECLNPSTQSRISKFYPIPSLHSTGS
T3 sequence (P35968 20-1356): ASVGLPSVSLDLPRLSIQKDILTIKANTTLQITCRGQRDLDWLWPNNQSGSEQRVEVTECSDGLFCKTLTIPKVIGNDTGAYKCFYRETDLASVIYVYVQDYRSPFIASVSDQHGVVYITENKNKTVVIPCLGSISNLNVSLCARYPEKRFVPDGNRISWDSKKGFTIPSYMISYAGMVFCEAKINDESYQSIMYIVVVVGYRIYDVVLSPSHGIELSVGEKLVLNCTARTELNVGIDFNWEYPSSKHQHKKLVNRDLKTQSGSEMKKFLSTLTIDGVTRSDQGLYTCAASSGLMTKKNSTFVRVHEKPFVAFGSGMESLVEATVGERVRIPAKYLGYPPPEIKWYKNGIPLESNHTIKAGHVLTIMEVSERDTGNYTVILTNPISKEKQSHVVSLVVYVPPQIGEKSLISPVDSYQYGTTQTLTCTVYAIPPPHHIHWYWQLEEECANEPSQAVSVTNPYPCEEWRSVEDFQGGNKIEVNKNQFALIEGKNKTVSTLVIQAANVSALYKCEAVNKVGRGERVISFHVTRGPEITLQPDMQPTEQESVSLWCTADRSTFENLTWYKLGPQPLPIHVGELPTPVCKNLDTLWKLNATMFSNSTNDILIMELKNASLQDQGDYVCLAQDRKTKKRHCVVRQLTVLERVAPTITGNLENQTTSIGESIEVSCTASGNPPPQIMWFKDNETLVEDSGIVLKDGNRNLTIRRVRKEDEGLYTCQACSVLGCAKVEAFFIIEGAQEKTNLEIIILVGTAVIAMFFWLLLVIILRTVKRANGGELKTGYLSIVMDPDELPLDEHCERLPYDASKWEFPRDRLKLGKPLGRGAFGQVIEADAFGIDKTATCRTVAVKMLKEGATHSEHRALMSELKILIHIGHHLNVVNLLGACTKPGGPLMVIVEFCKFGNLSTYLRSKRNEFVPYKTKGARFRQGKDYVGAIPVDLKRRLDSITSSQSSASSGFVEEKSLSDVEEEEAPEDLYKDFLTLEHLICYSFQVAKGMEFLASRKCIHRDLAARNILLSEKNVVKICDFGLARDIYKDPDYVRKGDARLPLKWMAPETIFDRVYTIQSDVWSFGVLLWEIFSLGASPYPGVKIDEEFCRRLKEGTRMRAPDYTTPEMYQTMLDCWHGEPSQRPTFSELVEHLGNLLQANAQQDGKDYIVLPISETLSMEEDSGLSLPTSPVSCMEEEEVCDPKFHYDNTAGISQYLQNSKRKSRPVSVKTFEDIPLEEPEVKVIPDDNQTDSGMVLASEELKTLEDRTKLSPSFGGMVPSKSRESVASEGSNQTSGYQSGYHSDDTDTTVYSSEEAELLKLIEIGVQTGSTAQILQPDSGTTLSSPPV

Regarding `CCc1cc(O)c(F)cc1-c1cc(F)c2c(-c3nc4c([nH]3)CCN(C(=O)CN3CCOCC3)C4)n[nH]c2c1` [Compound 1, 1-(2-(6-(2-ethyl-5-fluoro-4-hydroxyphenyl)-4-fluoro-1H-indazol-3-yl)-1,4,6,7-tetrahydro-5H-imidazo[4,5-c]pyridin-5-yl)-2-morpholinoethan-1-one], the inhibition at 1 µM was found to be 6% on CDK2, 100% on SLK, 42% at VEGFR2 and 31% against GSK3B. Moreover, in data set [1] (Form 1 suspension, intravitreal 4 mg/eye, New Zealand white rabbits), the “ocular exposure at 24 weeks” value was “Sustained exposure”. The “drug concentration in plasma lower than concentration in vitreous tissue” value in data set [1] (Form 1 suspension, intravitreal 0.25, 1 and 4 mg/eye, New Zealand white rabbits) is “at least 3 orders of magnitude”; in data set [1] (Form 2 suspension, intravitreal 0.02, 0.05, 0.1 and 1 mg/eye, Dutch Belted rabbits) it was “at least 3 orders of magnitude”. Moreover, in data set [1] (Form 1 suspension, intravitreal, all doses (0.25, 1, 4 mg/eye), New Zealand white rabbits), the “ocular exposure at 12 weeks (84 d)” value is “Robust sustained exposure”. For the same molecule, in data set [1] (Form 2 suspension, intravitreal 0.02-1 mg/eye, Dutch Belted rabbits, last time point 28-56 d), the “change of drug concentration in vitreous tissue from 30 min to last time point tested” value is “very gradual decrease”. In addition, the half-life in data set [1] (New Zealand white, 50 μg/eye, New Zealand white rabbits, read-out: terminal half-life, vitreous tissue (converted)) was around 48 h; in data set [1] (New Zealand white rabbits, read-out: half-life of initial decrease in concentration, vitreous tissue (converted)), around 9 h. For the same molecule, in data set [1] (rabbit eyes, single intravitreal injection (summary of Assay 7)), the “concentration in plasma versus vitreous tissue” value is reported as “at least three orders of magnitude lower”. The “inhibition of IL-6-induced pSTAT3 in retina/choroid tissues” value with IL-6 induced pSTAT3 turned out to be 116%.
